Experimental data as given in patent US20020137929A1, “1 - (3-heterocyclylphenyl) isothiourea, -isourea, -guanidine and -amidine herbicidal agents” (Intellectual Property Department, BASF Aktiengesellschaft, priority 1998, published 2002).

Assays:
ABUTH (Velvetleaf) = test: Preemergence herbicidal evaluation; assay type: in vivo, Abutilon theophrasti; settings: rated 4-5 weeks after treatment
Summary of the method: (§1)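 Each species is sown separately in potting soil over roughly an inch of soil before any emergence. The soil surface then receives an aqueous acetone spray delivering about 0.0156 to 0.500 kg/ha of compound. After four to five weeks, injury is scored from 0 to 9 relative to a control.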

[1] = system: TRZAWR (Wheat, Winter, cv Riband); test: Preemergence herbicidal evaluation; assay type: in vivo, Triticum aestivum; settings: rated 4-5 weeks after treatment
Summary of the method: as §1

[2] = system: ECHORC (Watergrass (Calif.)); test: Preemergence weed control under flooded paddy conditions; assay type: in vivo, Echinochloa oryzoides; settings: rated 3-4 weeks after treatment
Summary of the method: (§2)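 Herbicidal effect is scored visually on a 0-9 scale against an untreated control, three to four weeks after compounds are pipetted into the flood water (1.5 to 3 cm deep) over seeds planted in silt loam at 0.5 cm depth. Rates: about 0.0313 to 0.500 kg/ha.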

CYPIR (Rice Flatsedge) = test: as above; assay type: in vivo, Cyperus iria; settings: rated 3-4 weeks after treatment
Summary of the method: as §2

[3] = system: SAGPY (Arrowhead (Pygmaea)); test: as above; assay type: in vivo, Sagittaria pygmaea; settings: rated 3-4 weeks after treatment
Summary of the method: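 Ratings on a 0-9 visual scale cover stand, vigor, malformation, size, chlorosis and overall appearance relative to a control, taken three to four weeks post-treatment. Application was into flood water over freshly sown silt loam at roughly 0.0313 to 0.500 kg/ha.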

MOOVA (Monochoria) = test: Postemergence weed control under flooded paddy conditions; assay type: in vivo, Monochoria vaginalis; settings: postemergence weeds
Summary of the method: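 Flood-water application, about 0.0313–0.500 kg/ha a.i. in aqueous/acetone 50/50 v/v; water depth 1.5–3 cm throughout. Weeds 3–5 cm, rice 1.5–2.5 leaf. Greenhouse; 0–9 visual rating vs control at 3–4 wk.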

[4] = rate 0.0313 kg/ha, 3-4 weeks after treatment
[5] = rate 0.0625 kg/ha, 3-4 weeks after treatment
[6] = rate 0.1250 kg/ha, 3-4 weeks after treatment
[7] = rate 0.2500 kg/ha, 3-4 weeks after treatment
[8] = Rate 0.0625 kg/ha, rated 3 to 4 weeks after treatment

Compound	Preemergence herbicidal rating ABUTH (ABUTH (Velvetleaf); rate 0.0156 kg/ha)	Preemergence herbicidal rating ABUTH (ABUTH (Velvetleaf); rate 0.0313 kg/ha)	Preemergence herbicidal rating ABUTH (ABUTH (Velvetleaf); rate 0.0625 kg/ha)	Preemergence herbicidal rating ABUTH (ABUTH (Velvetleaf); rate 0.1250 kg/ha)	Preemergence herbicidal rating ABUTH (ABUTH (Velvetleaf); rate 0.2500 kg/ha)	Preemergence herbicidal rating TRZAWR ([1]; rate 0.0156 kg/ha)	Preemergence herbicidal rating TRZAWR ([1]; rate 0.0313 kg/ha)	Preemergence herbicidal rating TRZAWR ([1]; rate 0.0625 kg/ha)	Preemergence herbicidal rating TRZAWR ([1]; rate 0.1250 kg/ha)	Preemergence herbicidal rating TRZAWR ([1]; rate 0.2500 kg/ha)	Herbicidal rating ECHORC ([2]; 0.0313 kg/ha)	Herbicidal rating ECHORC ([2]; 0.0625 kg/ha)	Herbicidal rating ECHORC ([2]; 0.1250 kg/ha)	Herbicidal rating ECHORC ([2]; 0.2500 kg/ha)	Herbicidal rating CYPIR (CYPIR (Rice Flatsedge); 0.0313 kg/ha)	Herbicidal rating CYPIR (CYPIR (Rice Flatsedge); 0.0625 kg/ha)	Herbicidal rating CYPIR (CYPIR (Rice Flatsedge); 0.1250 kg/ha)	Herbicidal rating CYPIR (CYPIR (Rice Flatsedge); 0.2500 kg/ha)	Herbicidal rating MOOVA (MOOVA (Monochoria); [6])	Herbicidal rating MOOVA (MOOVA (Monochoria); [7])	also measured
CCOC(=O)CN1C(=O)C(CC(=O)O)O/C1=N/c1cc(-n2c(=O)cc(C(F)(F)F)n(C)c2=O)c(F)cc1Cl (stereo not shown) [Compound 41, 2-{{2-Chloro-5-[3,6-dihydro-3-methyl-2,6-dioxo-4-(trifluoromethyl)-1(2H)-pyrimidinyl]-4-fluoro-phenyl}imino}-4-oxo-3,5-oxazolidinediacetic acid, 3-ethyl ester]	7.0	9.0	9.0	9.0	9.0	0.0	0.0	0.0	0.0	0.0	3.0	4.0	6.0	7.0	0.0	0.0	0.0	4.0	9.0	9.0	Herbicidal rating SAGPY ([3]; 0.0313 kg/ha): 0.0; Herbicidal rating SAGPY ([3]; 0.0625 kg/ha): 0.0; Herbicidal rating SAGPY ([3]; 0.1250 kg/ha): 0.0; Herbicidal rating SAGPY ([3]; 0.2500 kg/ha): 6.0; Herbicidal rating MOOVA (MOOVA (Monochoria); [4]): 6.0; Herbicidal rating MOOVA (MOOVA (Monochoria); [5]): 9.0
CCOC(=O)CN1C(=O)CSC1=Nc1cc(N2C(=O)C3=C(CCCC3)C2=O)c(F)cc1Cl [Compound 47, Ethyl 2-{[2-chloro-5-(1-cyclohexene-1,2-dicarboximido)-4-fluorophenyl]imino}-4-oxo-3-thiazolidineacetate]	4.0	4.0	9.0	9.0	9.0	0.0	0.0	0.0	0.0	0.0	0.0	2.0	4.0	7.0	0.0	0.0	4.0	6.0	9.0	9.0	Herbicidal rating SAGPY ([3]; 0.0313 kg/ha): 0.0; Herbicidal rating SAGPY ([3]; 0.0625 kg/ha): 0.0; Herbicidal rating SAGPY ([3]; 0.1250 kg/ha): 4.0; Herbicidal rating SAGPY ([3]; 0.2500 kg/ha): 7.0; Herbicidal rating MOOVA (MOOVA (Monochoria); [4]): 5.0; Herbicidal rating MOOVA (MOOVA (Monochoria); [5]): 6.0
CCOC(=O)CN1C(=O)C(Cc2ccccc2OC(C)C(=O)OC)SC1=Nc1cc(-n2c(=O)cc(C(F)(F)F)n(C)c2=O)c(F)cc1Cl (stereo not shown) [Compound 50, 2-{{2-Chloro-5-[3,6-dihydro-3-methyl-2,6-dioxo-4-(trifluoromethyl)-1(2H)-pyrimidinyl]-4-fluoro-phenyl}imino}-5-(o-hydroxybenzyl)-4-oxo-3-thiazolidineacetic acid, ethyl ester, ester with methyl lactate]	–	–	9.0	9.0	9.0	–	–	0.0	0.0	0.0	4.0	7.0	7.0	7.0	0.0	0.0	0.0	0.0	3.0	7.0	Herbicidal rating SAGPY ([3]; 0.0313 kg/ha): 2.0; Herbicidal rating SAGPY ([3]; 0.0625 kg/ha): 2.0; Herbicidal rating SAGPY ([3]; 0.1250 kg/ha): 3.0; Herbicidal rating SAGPY ([3]; 0.2500 kg/ha): 3.0; Herbicidal rating MOOVA (MOOVA (Monochoria); [4]): 0.0; Herbicidal rating MOOVA (MOOVA (Monochoria); [5]): 0.0
Cn1c(C(F)(F)F)cc(=O)n(-c2cc(N=C3SCC(=O)N3[C@@H](Cc3ccccc3)C(=O)O)c(Cl)cc2F)c1=O [Compound 53, α-Benzyl-2-{{2-chloro-5-[3,6-dihydro-3-methyl-2,6-dioxo-4-(trifluoromethyl)-1(2H)-pyrimidinyl]-4-fluorophenyl}imino}-4-oxo-3-thiazolidineacetic acid, L-]	–	7.0	9.0	9.0	9.0	–	0.0	1.0	2.0	7.0	0.0	0.0	2.0	3.0	2.0	2.0	9.0	9.0	9.0	9.0	Herbicidal rating SAGPY ([3]; 0.0313 kg/ha): 0.0; Herbicidal rating SAGPY ([3]; 0.0625 kg/ha): 0.0; Herbicidal rating SAGPY ([3]; 0.1250 kg/ha): 0.0; Herbicidal rating SAGPY ([3]; 0.2500 kg/ha): 0.0; Herbicidal rating MOOVA (MOOVA (Monochoria); [4]): 2.0; Herbicidal rating MOOVA (MOOVA (Monochoria); [5]): 2.0
C#CCOC(=O)CC1SC(=Nc2cc(-n3c(=O)cc(C(F)(F)F)n(C)c3=O)c(F)cc2Cl)N(CC(=O)OCC)C1=O (stereo not shown) [Compound 59, 2-{{2-Chloro-5-[3,6-dihydro-3-methyl-2,6-dioxo-4-(trifluoromethyl)-1(2H)-pyrimidinyl]-4-fluorophenyl}imino}-4-oxo-3,5-thiazolidinediacetic acid, 3-ethyl (2-propynyl) ester]	2.0	6.0	8.5	9.0	9.0	0.0	0.0	0.0	2.0	2.0	–	–	–	–	–	–	–	–	0.0	9.0	Preemergence herbicidal rating ABUTH (ABUTH (Velvetleaf); rate 0.5000 kg/ha): 9.0; ECHORC herbicidal effect rating ([2]; 0.0625 kg/ha): 4.0; ECHORC herbicidal effect rating ([2]; 0.1250 kg/ha): 5.0; ECHORC herbicidal effect rating ([2]; 0.2500 kg/ha): 7.0; CYPIR herbicidal effect rating (CYPIR (Rice Flatsedge); 0.0625 kg/ha): 0.0; CYPIR herbicidal effect rating (CYPIR (Rice Flatsedge); 0.1250 kg/ha): 0.0; CYPIR herbicidal effect rating (CYPIR (Rice Flatsedge); 0.2500 kg/ha): 9.0; SAGPY herbicidal effect rating ([3]; 0.0625 kg/ha): 0.0; SAGPY herbicidal effect rating ([3]; 0.1250 kg/ha): 0.0; SAGPY herbicidal effect rating ([3]; 0.2500 kg/ha): 3.0; Herbicidal rating MOOVA (MOOVA (Monochoria); [8]): 0.0
CCOC(=O)CN1C(=O)C(CC(=O)OC(C)C)SC1=Nc1cc(-n2c(=O)cc(C(F)(F)F)n(C)c2=O)c(F)cc1Cl (stereo not shown) [Compound 60, 2-{{2-Chloro-5-[3,6-dihydro-3-methyl-2,6-dioxo-4-(trifluoromethyl)-1(2H)-pyrimidinyl]-4-fluoro-phenyl}imino}-4-oxo-3,5-thiazolidinediacetic acid, 3-ethyl isopropyl ester]	2.0	9.0	7.0	9.0	9.0	0.0	0.0	0.0	1.0	1.0	–	–	–	–	–	–	–	–	–	–	Preemergence herbicidal rating ABUTH (ABUTH (Velvetleaf); rate 0.5000 kg/ha): 9.0; ECHORC herbicidal effect rating ([2]; 0.0313 kg/ha): 7.0; ECHORC herbicidal effect rating ([2]; 0.0625 kg/ha): 9.0; ECHORC herbicidal effect rating ([2]; 0.1250 kg/ha): 9.0; ECHORC herbicidal effect rating ([2]; 0.2500 kg/ha): 9.0; CYPIR herbicidal effect rating (CYPIR (Rice Flatsedge); 0.0313 kg/ha): 3.0; CYPIR herbicidal effect rating (CYPIR (Rice Flatsedge); 0.0625 kg/ha): 3.0; CYPIR herbicidal effect rating (CYPIR (Rice Flatsedge); 0.1250 kg/ha): 6.0; CYPIR herbicidal effect rating (CYPIR (Rice Flatsedge); 0.2500 kg/ha): 6.0; SAGPY herbicidal effect rating ([3]; 0.0313 kg/ha): 3.0; SAGPY herbicidal effect rating ([3]; 0.0625 kg/ha): 4.0; SAGPY herbicidal effect rating ([3]; 0.1250 kg/ha): 9.0; SAGPY herbicidal effect rating ([3]; 0.2500 kg/ha): 9.0; Herbicidal rating MOOVA (MOOVA (Monochoria); Rate 0.0313 kg/ha, rated 3 to 4 weeks after treatment): 9.0; Herbicidal rating MOOVA (MOOVA (Monochoria); [8]): 9.0; Herbicidal rating MOOVA (MOOVA (Monochoria); Rate 0.1250 kg/ha, rated 3 to 4 weeks after treatment): 9.0; Herbicidal rating MOOVA (MOOVA (Monochoria); Rate 0.2500 kg/ha, rated 3 to 4 weeks after treatment): 9.0
